Reference: patent US7887833B2, “Amphiphilic compounds and vesicles liposomes for organ-specified drug targeting” (Ben-Gurion University of the Negev Research and Development …, priority 2001, dated 2011)

Key:
Assay type in all cases: biochemical
[1] = test system: acetylcholinesterase (ACHE); assay: Competition assay using the Elman's method (acetylthiocholine/DTNB); conditions: acetylthiocholine 1.5 mM, DTNB 0.5 mM, 3 units AChE, phosphate-buffered saline
Protocol: (ii) Competition assay using the Elman's method: Hydrolysis of acetylthiocholine (ATC) releases thiocholine, which reduces 5,5′-dithiobis-2-nitrobenzoate (DTNB) giving rise to a yellow coloring of the solution. […] A series of solutions with varying concentrations of Derivatives 1 and 2 in methanol together with acetylthiocholine (1.5 mM), DTNB (0.5 mM), and with 3 units of acetylcholinesterase (ACHE) in phosphate-buffered saline, was prepared. The rate of appearance of yellow color was determined in each of the reaction mixtures. […] Thus, vesicles prepared from Derivative 1 are expected to disrupt faster than vesicles prepared from Derivative 2, when exposed to cholinesterases.

cholinesterases (ChE) = assay: pH-stat method: hydrolysis of headgroups by cholinesterases of human serum; conditions: 100 mM solutions diluted 100 times, pH 9.0, human serum 0.1 ml, 15 min
Protocol: The ability of cholinesterases (ChE) to hydrolyze Derivatives 1 and 2 was assessed using two methods:
(i) The pH-stat method: Hydrolysis of the acetylcholine ester headgroups of Derivative 1, as well as of acetylcholine (ACh), by cholinesterases (ChE), releases acetic acid into the solution. Hydrolysis of Derivative 2 by ChE releases choline and a free fatty acid. In both cases, the release of acid results in pH drop. The hydrolysis rate of these compounds can be determined by measuring the amount of NaOH needed to neutralize the acid generated during hydrolysis. Three solutions, 100 mM concentration each of acetylcholine (ACh) in water and of Derivatives 1 and 2 in methanol were prepared, then diluted 100 times with water (10 ml), and their pH was adjusted to pH 9.0 using 0.1M NaOH. The pH was monitored until it remained stable for 10 min (baseline). At this stage, human serum (0.1 ml) containing ChE, was added and each of the solutions was titrated with 0.05M NaOH in order to maintain pH 9.0. The amount of the NaOH needed to maintain constant pH was measured during 15 min. […] Thus vesicles prepared from Derivative 1 are expected to disrupt, in presence of ChE, faster than vesicles made from Derivative 2.

[2] = molecular target: T1, aromatic L-amino acid decarboxylase (AADC) (Rattus norvegicus, UniProt P14173); assay: Decarboxylation of headgroup by AADC from rat liver homogenate (HPLC, electrochemical detector)
T1 construct: rat liver homogenate served as the source for AADC; from tissue; host or cells: rat liver homogenate
T1 sequence (P14173 1-480): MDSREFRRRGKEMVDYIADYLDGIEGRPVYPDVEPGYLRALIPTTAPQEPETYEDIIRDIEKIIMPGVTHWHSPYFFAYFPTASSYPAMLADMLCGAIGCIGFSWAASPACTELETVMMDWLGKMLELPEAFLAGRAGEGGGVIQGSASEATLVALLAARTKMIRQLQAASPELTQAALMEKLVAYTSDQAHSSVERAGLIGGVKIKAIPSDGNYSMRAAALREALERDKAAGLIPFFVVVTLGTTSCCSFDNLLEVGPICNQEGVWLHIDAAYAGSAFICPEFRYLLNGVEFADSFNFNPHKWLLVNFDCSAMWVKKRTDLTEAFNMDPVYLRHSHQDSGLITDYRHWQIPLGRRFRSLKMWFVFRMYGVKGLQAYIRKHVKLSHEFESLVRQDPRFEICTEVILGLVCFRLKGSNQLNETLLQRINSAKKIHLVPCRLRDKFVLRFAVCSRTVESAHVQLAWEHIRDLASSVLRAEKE
Source text: Derivative 5 contains an aromatic amino acid moiety as a headgroup. This negatively charged headgroup, at physiological pH, may be a suitable substrate for the enzyme aromatic L-amino acid decarboxylase (AADC). Upon exposure to AADC, the headgroup of Derivative 5 should be converted to an amine thus changing the nature of the headgroup (from a carboxyl to amine) in a way that can result in destabilization of vesicles made from Derivative 5.
To test whether Derivative 5 could serve as a substrate for AADC, rat liver homogenate served as the source for AADC and the following experiment was carried out. A methanol solution (0.005 ml) of Derivative 5 was added to a reaction mixture (0.5 ml final volume) containing potassium phosphate (50 mM, pH=7.0), dithiothreitol (1 mM), EDTA (0.2 mM), pyridoxal 5′-phosphate (0.01 mM), pargylin (0.1 mM), and rat liver homogenate adjusted to 5 mg protein. The final concentration of Derivative 5 was 1 mM. The reaction mixture was incubated at 37° C. for 60 min followed by the addition of 0.05 ml perchloric acid (70%) and neutralized by 4M KOH. The mixture was then centrifuged at 20.000 g for 10 min at 4° C. and 0.1 ml of the supernatant was injected into a C18-HPLC column. The presence of the amine, which was formed during the reaction, was determined by electrochemical detector. […]

| SMILES | competition with acetylthiocholine for the hydrolyzing enzyme (rate of appearance of yellow color) [1] | hydrolysis rate (NaOH needed to maintain constant pH) (cholinesterases (ChE)) | decarboxylation to the amine (HPLC peak) ([2]; 1 mM, rat liver homogenate 5 mg protein, 37° C., 60 min) | amine peak in presence of benserazide ([2]; benserazide 5×10^-5 M added to the reaction mixture) |
| --- | --- | --- | --- | --- |
| CCCCCC(OC(=O)C[N+](C)(C)CCOC(C)=O)C(O)CC=CCCCCCCCC(=O)NCCNC(=O)CCCCCCCC=CCC(O)C(CCCCC)OC(=O)C[N+](C)(C)CCOC(C)=O (stereo not shown) [Derivative 1] | higher extent | faster hydrolysis |  |  |
| CCCCCC(OC(=O)CNc1ccc(CC(N)C(=O)O)cc1)C(O)CC=CCCCCCCCC(=O)NCCNC(=O)CCCCCCCC=CCC(O)C(CCCCC)OC(=O)CNc1ccc(CC(N)C(=O)O)cc1 (stereo not shown) [Derivative 5] |  |  | decarboxylated | not detectable |
